Data from patent publication US7317037B2, “Progesterone receptor modulators comprising pyrrole-oxindole derivatives and uses thereof” (Wyeth, priority 2004, dated 2008).
Like-named read-outs stand apart in the source and are kept apart here.

Assays:
[1] = target: T1, progesterone receptor (PR) (Homo sapiens, UniProt P06401); experiment: T47D cell alkaline phosphatase assay (antagonist mode); type: cell-based
T1 construct: Effects of Progestins and Antiprogestins on Alkaline Phosphatase Activity in T47D Cells; endogenous in cells; host or cells: T47D cells
T1 sequence (P06401 1-933): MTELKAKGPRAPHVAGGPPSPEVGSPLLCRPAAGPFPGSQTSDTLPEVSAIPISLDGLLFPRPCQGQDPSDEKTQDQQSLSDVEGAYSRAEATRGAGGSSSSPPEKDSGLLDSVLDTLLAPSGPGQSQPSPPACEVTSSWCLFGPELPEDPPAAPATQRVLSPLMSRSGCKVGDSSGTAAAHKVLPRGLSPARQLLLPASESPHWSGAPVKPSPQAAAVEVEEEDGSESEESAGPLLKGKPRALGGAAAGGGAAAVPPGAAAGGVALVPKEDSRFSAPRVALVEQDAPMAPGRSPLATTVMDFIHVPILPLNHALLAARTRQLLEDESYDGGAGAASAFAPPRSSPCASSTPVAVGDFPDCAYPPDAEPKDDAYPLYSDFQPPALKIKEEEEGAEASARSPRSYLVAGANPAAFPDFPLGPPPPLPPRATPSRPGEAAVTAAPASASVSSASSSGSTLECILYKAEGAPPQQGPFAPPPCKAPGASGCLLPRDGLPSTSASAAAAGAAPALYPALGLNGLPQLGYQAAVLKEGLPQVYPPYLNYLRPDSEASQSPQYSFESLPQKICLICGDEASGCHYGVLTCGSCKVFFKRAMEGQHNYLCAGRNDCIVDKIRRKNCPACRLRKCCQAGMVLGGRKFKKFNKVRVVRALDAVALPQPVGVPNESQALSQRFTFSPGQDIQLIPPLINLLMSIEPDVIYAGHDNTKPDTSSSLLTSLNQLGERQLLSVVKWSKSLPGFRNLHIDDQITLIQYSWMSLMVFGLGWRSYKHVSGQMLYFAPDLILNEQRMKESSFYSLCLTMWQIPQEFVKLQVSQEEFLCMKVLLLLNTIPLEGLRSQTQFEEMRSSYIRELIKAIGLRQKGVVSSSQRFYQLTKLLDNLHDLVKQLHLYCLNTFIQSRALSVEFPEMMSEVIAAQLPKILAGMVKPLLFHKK
Experimental: A. Effects of Progestins and Antiprogestins on Alkaline Phosphatase Activity in T47D Cells (T47D Alkaline Phosphatase Assay)
Culture medium: DMEM:F12 (1:1) (GIBCO, BRL) supplemented with 5% (v/v) charcoal stripped fetal bovine serum (not heat-inactivated), 100 U/mL penicillin, 100 μg/mL streptomycin, and 2 mM GlutaMax (GIBCO, BRL).
Alkaline phosphatase assay buffer: I. 0.1M Tris-HCl, pH 9.8, containing 0.2% Triton X-100, 0.1M Tris-HCl, pH 9.8, containing 4 mM p-nitrophenyl phosphate (Sigma).
2. Cell Culture and Treatment:
Frozen T47D cells are thawed in a 37° C. water bath and diluted to 280,000 cells/mL in culture medium. To each well in a 96-well plate (Falcon, Becton Dickinson Labware), 180 μl of diluted cell suspension is added. Twenty μl of reference or test compounds diluted in the culture medium is then added to each well. When testing for progestin antagonist activity, reference antiprogestins or test compounds are added in the presence of 1 nM progesterone. The cells are incubated at 37° C. in a 5% CO2 humidified atmosphere for 24 hours. For high throughput screening, one concentration of each compound will be tested at 0.3 μg/mL. Based on an average molecular weight of 300 g/mol for the compounds in the library, the concentration is approximately 1 μM. Subsequently, active compounds will be tested in dose response assays to determine EC50 and IC50.
3. Alkaline Phosphatase Enzyme Assay:
At the end of treatment, the medium is removed from the plate. Fifty μl of assay buffer I is added to each well. The plates are shaken in a titer plate shaker for 15 min. Then 150 μl of assay buffer II is added to each well. Optical density measurements are taken at 5 min intervals for 30 min at a test wavelength of 405 nm.
4. Analysis of Dose-Response Data.
For reference and test compounds, a dose response curve is generated for dose vs. the rate of enzyme reaction (slope). Square root-transformed data are used for analysis of variance and nonlinear dose response curve fitting for both agonist and antagonist modes. Huber weighting is used to down-weight the effects of outliers. EC50 or IC50 values are calculated from the retransformed values. JMP software (SAS Institute, Inc.) is used for both one-way analysis of variance and non-4 linear dose response analysis in both single dose and dose response studies.
Progesterone and trimegestone are reference progestins and RU486 is the reference antiprogestin. All reference compounds are run in full dose response curves and the EC50 and IC50 values are calculated.

menses induction = experiment: Cynomolgus monkey menses induction assay; type: in vivo; settings: 5 mg/kg po
Experimental: C. Cynomolgus Monkey […] Induction 1. Experimental Design The effects of administered compound(s) in either a single dose or a dose-response paradigm versus an appropriate control (vehicle alone) are determined. When a compound is tested at a single dose, a group of four animals will be used for the dose. In the dose response study, each experiment will involve up to 5 groups of animals (a control group and 4 groups of animals treated with varying doses of the compound). Experimental groups will contain 3-4 animals/group, since this sample size is commonly used in the literature and has been found appropriate based on our own experience. The animals are treated with test compounds once or twice daily for 4 days in the mid-luteal phase of the menstrual cycle to assess the efficacy of the compounds on the reproductive parameters menstruation. 2. Procedures Initially, animals are characterized in terms of their reproductive cyclicity by observing time of menstruation. Only those animals with two consecutive normal cycles are used to evaluate test compounds. […] will be determined by daily gross examination for vaginal bleeding. In each experiment, animals will be treated once or twice daily IV, IM, SC or PO with the test compound. Appropriate vehicles will be determined for each route of administration and will be specified through protocol amendments. […]

[2] = Cynomolgus monkey intravenous pharmacokinetics; settings: in vivo, cynomolgus monkeys, 0.25 mg/kg i.v.
Description: Therefore from the preceding data it is clear that the R6=fluorine group present in 5-(7-fluoro-3,3-dimethyl-2-oxo-2,3-dihydro-1H-indol-5-yl)-1-methyl-1H-pyrrole-2-carbonitrile dramatically improves the pharmacokinetic performance of the molecule. This improved pharmacokinetic performance translates in the cynomolgus menses induction assay to a dramatic improvement in activity.

IC50 ([1]; PR antagonist, comparative example text, read-out: IC50 in the T47D alkaline phosphatase assay): 3.4 nM
IC50 ([1]; T47D cells, antagonist mode in the presence of 1 nM progesterone, 24 hours, read-out: IC50 (nM), T47D Cell Alkaline Phosphatase Assay): 5.4 nM
AUC(0-inf) ([2]; read-out: exposure (AUC0-∞)): 578 ng·h/mL
half-life ([2]; read-out: mean half life (t1/2) (converted)): 8.8 h
Compound: Cn1c(C#N)ccc1-c1cc(F)c2c(c1)C(C)(C)C(=O)N2 [5-(7-fluoro-3,3-dimethyl-2-oxo-2,3-dihydro-1H-indol-5-yl)-1-methyl-1H-pyrrole-2-carbonitrile]
induction of early onset of menses (menses induction): 4 out of 5
